The test system of data set [1] is S. aureus. In words: Radial diffusion in the presence of RBCs. The class given is cell-based. On the set-up: key: The ↑ represents the improvement in performance that would be desired for a viable in vivo antimicrobial peptide; ↓: The symbol represents a regression in desired behavior; *=p<0.05; **=p<0.01; ***=p<0.001. As to conditions: change versus parent sequence; paired t-test. As to the method: Underlay agarose was prepared by adding 5 g of low EEO agarose and 0.03 g of TSB to 500 mL of 10 mM phosphate buffer (pH=7.4). Overlay agarose was prepared by adding 5 g of low EEO agarose and 30 g of TSB to 500 mL of 10 mM phosphate buffer (pH=7.4). Both solutions were heated until the agarose melted and then were autoclaved. To a rectangular, one-well plate, 20 mL of underlay agarose, inoculated with 8×10^6 CFUs of bacteria, was added. A sterile, 96-well plate replicator from Sigma-Aldrich was set in the molten agarose and removed one the agarose solidified. Antibiotic was prepared at 4 times the final desired concentration. For the antibiotic standard, a serial dilution of 3:4 across a 96-well plate was performed followed by 1:4 dilution with PBS. Otherwise, the peptide was diluted to 20 μM with RBCs and/or serum to give between 2% (1×10^8 cells/mL) and 20% (1×10^9 cells/mL). Solutions were incubated with gentle shaking for 30 minutes at 37° C. […]. Overlay was added, and the plate was incubated upside down overnight. Surface growth was cleared, the plates were sterilized with 25% methanol and 5% acetic acid. Zones of inhibition were photographed and analyzed using ImageJ. (FIG. 21)
The engineered peptide sequences and their derivation from parent sequences is shown, along with the underlying hypothesis described for the first set of peptides (Table 4) and the second set (Table 5). We performed statistical testing for performance in antimicrobial assays in the presence and absence of RBCs, as well as for cytotoxicity. The broth dilution results were tested using a two sample t-test (N=6-22). The radial diffusion results were tested using a paired t-test (N=4). The cytotoxicity results were tested using a paired t-test (N=3). The ↑ represents the improvement in performance that would be desired for a viable in vivo antimicrobial peptide. This corresponds to a decrease in MIC values (increased potency) and decreased cytotoxicity. The symbol represents a regression in desired behavior. (*=p<0.05, **=p<0.01, ***=p<0.001).

Data set [2] concerns P. aeruginosa PA01. The experiment in a line: Acute pneumonia induced by P. aeruginosa aspiration. The class given is in vivo, C57BL/6 mice. As to the method: Female C57BL/6 mice, aged five weeks, were obtained from Charles River Laboratories. Upon receipt, they were allowed at least one week to recover from transport and acclimate to the new housing environment. Mice were maintained on a standard chow diet. Experiments were performed with mice no younger than six weeks and no older than nine weeks. P. aeruginosa PA01 was cultured overnight in tryptic soy broth (TSB) at 37° C. and shaken at 220 RPM. Prior to infecting the mice, the overnight culture was diluted 100-fold into 25-mL of fresh TSB. The culture was grown for three hours before optical density was determined. Previous growth curve experiments allowed us to dilute this newly expanded culture to 1.4×10^8 CFU/mL. To infect an animal, mice were anesthetized using isoflurane and 50 μL of bacterial suspension (7×10^6 CFUs) was administered via intratracheal instillation. Briefly, the anesthetized mice were suspended from wire by their front feet and blunt forceps were used to extract the tongue. The tongue was pulled out and downward. The bacterial suspension was deposited in the back of the throat with a micropipette. The nares of the animal were then covered while the mouse recovered from anesthesia. The chest was gently rubbed to promote inhalation. The mice were made to inhale 15 times before the tongue was released and the mouse was removed from the wire. The animals were then allowed a minute to fully awaken and then returned to their cages.
(§1) The mice were then treated with D-NOGCON (SEQ ID NO:37), which were instilled in the trachea, exactly as described above for the administration of bacterial infection. Before attempting to treat a P. aeruginosa infection of the lung, we sought to establish a safe dose for administration of the D-NOGCON peptide via aspiration. Based on in vitro toxicity data (FIGS. 28D and 28E), a dosing regimen of 50 μL of D-NOGCON (100 μM) was administered every 8 hours for 3 days (9 doses). As a no treatment control, we administered 50 μL of PBS on the same schedule.
Our initial experiment was survival-based. We infected 8 mice (4 for treatment, 4 for vehicle) with the above bacterial load in 50 μL of PBS and allowed 2 hours of recovery prior to the initial treatment administration. After the recovery period, dosing proceeded as it had for the second safety study (50 μL, 50 μM, 2× daily). […] At the 24-hour time point, mice from both groups lost ˜12% body weight (FIG. 30A). Between 24 and 48-hour timepoints, 3 controls and 1 treated animal were sacrificed (FIG. 30B). […] Euthanasia is required in these cases because the animals are clearly suffering and are not able to obtain the nutrients required for survival. […] The lungs of 3 animals from each treatment group were removed, homogenized, and plated on PIA plates to determine the P. aeruginosa CFU burden (FIG. 30C).
A third study reduced the CFU burden of P. aeruginosa to 7×10^6 and mice were treated as with the previous experiment. As in the previous experiment, both treated and untreated animals lost 10-12% of their body weight after 24 hours (FIG. 31A). […] What was not taken into consideration in this experiment was the propensity for infection to spread to other tissues.

For data set [3], the system named is P. aeruginosa. In words: Deep wound infection with luminescent P. aeruginosa, whole animal imaging. The class given is in vivo, mice. As to the method:
Deep wounds in mice were infected with a luminescent strain of P. aeruginosa and monitored with whole animal imaging (FIGS. 35-37). In FIG. 36 infections are just beginning to become established. Areas of red indicate maximal bacterial colonization. No treatments have occurred. Treatment was twice per day, with 50 μg of D-NOGCON peptide in 20 μL of vehicle (0.025% acetic acid) starting 2 hours after infection. […] In the control animals (FIG. 36A), the infection is fully established across the entire wound bed and saturated the detector (red color). In the treated animals (FIG. 36B) the infection is much smaller in area and much lower in intensity, indicating it is under control.

The subject of data set [4] is P. aeruginosa biofilms. In words: Activity against P. aeruginosa biofilms. The class given is cell-based. The settings on record: 25 μM. As to the method:
Bacterial biofilm formation on implanted medical devices is a serious medical problem because these biofilms can lead to life-threatening systemic infections. We tested selected peptides and rationally designed variants against biofilms formed by P. aeruginosa. […] D-NOGCON reduces viable bacteria by 3.6 logs ( 1/3000 reduction) at 25 μM, while the best conventional antibiotic, Ciprofloxacin, reduced viable bacteria by only 1.7 logs ( 1/55 reduction) at 25 μM.

A short description of data set [5]: Safety study of aspirated D-NOGCON. The class given is in vivo, C57BL/6 mice. The settings on record: aspiration. As to the method: as §1
To monitor the toxicity we measured animal behavior and body weight changes (FIG. 29A). […] In the second safety trial, we administered 50 μL of D-NOGCON (50 μM) twice daily, for three days and monitored the animals behavior and body weight changes (FIG. 29B).

Data set [6] concerns P. aeruginosa. The experiment in a line: Induced resistance, ten serial passages of broth sterilization assays. The class given is cell-based. The settings on record: ⅔ serially diluted antibiotics, overnight growth. The source says:
Bacterial resistance against peptide antibiotics is known to occur, although it is reportedly more difficult to induce than resistance against conventional antibiotics. P. aeruginosa can gain resistance to some AMPs through selection for a variant with altered outer membrane composition. We used P. aeruginosa in a screen (FIG. 36) to select against rapid resistance. We tested if P. aeruginosa can stably gain resistance to the rationally designed peptides described herein and we compared their ability to adapt to conventional antibiotics under the same conditions. For ten serial passages, we performed broth sterilization assays using ⅔ serially diluted antibiotics with overnight growth. For each passage, we used the bacteria that grew at the highest antibiotic concentration to expand overnight for the subsequent generation. […] All of the conventional antibiotics promoted increasing resistance, and two promoted complete resistance by 10 passages.

Data set [7] concerns HeLa, RAW264.7, HepG2, and MCF-7 cells. In words: TAMRA delivery assay (flow cytometry, confocal microscopy). In kind it is cell-based. As to conditions: 0.5 μM CPP-TA + 4.5 μM CPP-C, 30 minutes at 4° C., 22° C., or 37° C. As to the method:
To determine the effect of the PNA cargo on delivery, we labeled CPPs, lacking the PNA705 cargo, with the fluorophore TAMRA on a C-terminal cysteine residue (CPP-TA) and measured delivery to multiple cell types. TAMRA-labelled CPPs, mixed with unlabeled CPPs at a 1:10 ratio in serum-free DMEM for a final concentration of 5 μM total peptide, was added to HeLa, RAW264.7, HepG2, and MCF-7 cells in 12-well cell culture plates and incubated for 30 minutes at 4° C., 22° C., or 37° C. prior to flow cytometric analysis (FIGS. 9-16). […] Delivery of TAMRA was verified by confocal microscopy for each cell type.
Hela, RAW264.7, HCT116, HepG2, and MCF-7 cells were plated in 12-well plates at 100,000 cells/well. After 24 hours, cells were gently washed in PBS, topped with 500 μl of CPP-TA solution containing 0.5 μM CPP-TA+4.5 uM CPP-C in sfDMEM without phenol red, and incubated for 30 min at either 4° C., 23° C., or 37° C. The incubation solution was aspirated and cells were treated with 100 μl 0.025% Trypsin for 3 minutes at 23° C. 500 μl DMEM containing 2% FBS, 125 nM Sytox Green, and 20 mM HEPES was used to suspend the cells. Cells were transferred to a filter-topped flow cytometry tube and analyzed on a BD™ LSR II flow cytometer. Cells displaying a normal morphology were gated and first analyzed for GFP fluorescence using the 488 nM laser. GFP negative cells were used to generate a histogram of TAMRA fluorescence, measured with the 543 nM laser.
Cells were treated as described above for the TAMRA delivery assay and immediately imaged to avoid artifacts resulting from fixation. The distribution of TAMRA and Sytox Green was analyzed using a confocal scanning Nikon Eclipse Ti2 inverted microscope using a 40× oil-immersion objective. Sytox Green was excited using the 488 nM laser and TAMRA was excited using the 543 nM laser.
(A flow cytometer gives signals particle by particle.)

Data set [8] deals with Hela cells stably transfected with mCherry and GFP1-10. The experiment in a line: Split GFP assay (GFP-11 delivery). In kind it is cell-based. As to conditions: 40 μM peptide-GFP-11, 37° C. As to the method: To test the ability of CPPs to deliver other cargoes, specifically a protease-sensitive peptide cargo, we modified the well-known split-GFP assay. CPPs were tested for the ability to deliver the polar 16-residue GFP-11 peptide across the membrane barrier. This peptide rescues the fluorescence of the cytosolic endogenous, non-fluorescent GFP1-10 protein. Here, we stably transfected Hela cells with a plasmid containing the full length mCherry and the non-fluorescent GFP1-10. Following incubation with CPP-GFP-11 constructs at multiple concentrations and temperatures for 30 minutes in serum free DMEM, cells were analyzed by flow cytometry for mCherry and GFP fluorescence (FIG. 17). Live cells expressing mCherry (˜50% of the total cells) were gated and their GFP fluorescence was analyzed. Unlike the luciferase splice correction assay where a single corrected mRNA transcript serves as template for many molecules of functional luciferase, the split GFP assay is stoichiometric; a single GFP-11 peptide can bind to a single GFP1-10 protein producing a finite fluorescent response.
Hela cells were transfected with p_mCherry-GFP1-10 (Addgene plasmid #78591) using LIPOFECTAMINE® 3000 (ThermoFisher). Single mCherry positive cells were sorted into 96-well plates using a BD™ FACSARIA™ cell sorter and colonies were maintained under G418 selection at […]. Stably transfected cells were plated in 12-well plates at 100,000 cells/well and grown overnight in complete DMEM. Cells were washed in PBS and incubated in 500 μl of CPP-GFP-11 solution at variable concentrations at 23° C. and 37° C. for 30 minutes. The CPP-GFP-11 solution was aspirated and 100 μl of 0.025% trypsin solution was added to each well. After detachment, cells were suspended in 500 μL of PBS+2% FBS and 20 mM HEPES. Cells were analyzed using a BD™ LSRII flow cytometer. Cells displaying a normal morphology were gated and first analyzed for mCherry fluorescence using the 543 nM laser. mCherry+ cells were used to generate a histogram of GFP fluorescence measured with the 488 nM laser.

Data set [9] shares this test system. The experiment in a line: Split GFP assay (GFP-11 delivery). In kind it is cell-based. The settings on record: 40 μM peptide-GFP-11, 22° C.

“Also recorded” adds a separate entry of the source.

Consider RRWARRLAFAFRR [D-NOGCON], for which, in data set [1], the “Radial Diffusion vs. S. aureus” value is recorded as “↑Radial diffusion vs”. Moreover, the body weight lost was roughly 12% in [2] (survival study, 24-hour time point, same in vehicle group); “more than 20%” in data set [2] (survival study, day 3, all animals of both groups); 10-12% in data set [2] (third study, after 24 hours, same in untreated animals). The “survival of the initial 24 hours” value in data set [2] (survival study, 50 μL, 50 μM, 2× daily, first dose 2 hours after infection) is “All mice from both treatment groups survived”. Also, the animals sacrificed in data set [2] (survival study, between 24 and 48-hour timepoints, 4 mice per group, 3 controls sacrificed) is given as 1. Further, the infection titer entry in [2] (survival trial, 50 μL, 50 μM, 2× daily) was “little improvement in the infection titer”. Moreover, the “infection titer over control” value in [2] (third experiment, lower CFU burden) is listed as “little improvement”. In addition, in data set [2] (third study, two doses over 24 hours), the “CFU burden versus untreated” value is reported as “non-significant increase”. Also, the “wound infection (luminescence imaging)” value in [3] (after a single day of treatment, 50 μg in 20 μL twice per day starting 2 hours after infection) was “dramatically reduced compared to the control”. The integrated luminescence result in data set [3] (first 5 days, treated on days 0, 1, and 2) is “significant protection, slowing of bacterial growth and more rapid clearance over control”. The “summed activity and behavior scores” value in data set [3] (scale 0 (normal) to 3 each for five items, maximum 15) is on record as “more normal behavior; also recorded: better summed behavioral scores”. Also, the “reduction of viable bacteria in biofilm” value in data set [4] turned out to be 3.6 logs. Besides, the “tolerability (behavior and body weight changes)” value in data set [5] (50 μL of 50 μM twice daily for three days) is given as “sufficiently safe”; in data set [5] (50 μL of 100 μM every 8 hours for 3 days) it was “too toxic for the animals to tolerate”.
Take RRWARLRLVLAY [ARVA]: the induction of resistance entry in data set [6] was “promoted total resistance in a few passages”.
GRKKRRQRRRPPQ [TAT, reference compound]: in [7], the “TAMRA delivery (words, rank order)” value was “CPP-2»CPP-3=CPP-1>CPP-4>TAT=penetratin”. In addition, the “mCherry positive cells GFP-11 is delivered to” value in data set [8] is on record as 21%; in data set [9] it was 7%.

The values above are taken from patent US11266743B2, “Peptide compositions and methods of use thereof” (priority 2017, dated 2022).
